The values below come from patent US6340654B1, “Freshness-retaining agent and method for agricultural/horticultural products” (priority 1999, dated 2002).

Structures are written as SMILES.

The test system of the test is fresh pieces of apple (variety: Mutsu). Kind of test: Ethylene concentration lowering effect for apple (ethylene in hermetically closed jar, tubular gas detector). The following applies: 23° C.
Where [1] appears, read: Table 1, 20 g apple pieces in closed 150-mL jar, 3 g agent.
[2] abbreviates: Table 2, vs. mixing ratio, 3 g agent per 20 g apple.
Setting [3] is: Table 9, single substances 3 g, mixtures 1.5 g + 1.5 g, 20 g apple.
Setting [4] is: Table 10, vs. mixing ratio, 3 g agent per 20 g apple.

Description: Mouths of those jars were then hermetically closed with “[sequence]” (trademark; product of American National Can Company). Those jars were left over at 23° C., and on DAY 1, DAY 3 and DAY 6, the concentrations of ethylene in the respective jars were measured by a tubular gas detector (manufactured by Gastec, Inc.). The concentration of ethylene in a jar with “KIMWIPE” alone hermetically placed therein was also measured as a control.
Mouths of those jars were then hermetically closed with “[sequence]”. Those jars were left over at 23° C., and on DAY 1, DAY 3 and DAY 6, the concentrations of ethylene in the respective jars were measured by the tubular gas detector (manufactured by Gastec, Inc.). The concentration of ethylene in a jar with “KIMWIPE” alone hermetically placed therein was also measured as a control.
In 150-mL jars with 20 g per jar of fresh pieces of apple (variety: Mutsu) placed therein, portions (0.5 to 3 g) of a freshness-retaining agent [cinnamic acid:sodium hydrogen-carbonate=1:2 (by weight)] according to the present invention—all of which were individually wrapped with “KIMWIPE” (trademark for laboratory paper produced by Jujo-Kimberly Co., Ltd.)—were placed, respectively. Mouths of those jars were then hermetically closed with “[sequence]”. Those jars were left over at 23° C., and on DAY 1 and DAY 3, the concentrations of ethylene in the respective jars were measured by the tubular gas detector (manufactured by Gastec, Inc.). The concentration of ethylene in a jar with “KIMWIPE” alone hermetically placed therein was also measured as a control.
In 150-mL jars with 20 g per jar of fresh pieces of apple (variety: Mutsu) placed therein, three freshness-retaining agents according to the present invention [1:3 (by molar ratio) mixtures of cinnamic acid and hydrogencarbonates]—all of which were individually wrapped with “KIMWIPE” (trademark for laboratory paper produced by Jujo-Kimberly Co., Ltd.)—were placed, respectively. Mouths of those jars were then hermetically closed with “[sequence]”. Those jars were left over at 23° C., and on DAY 1 and DAY 3, the concentrations of ethylene in the respective jars were measured by the tubular gas detector (manufactured by Gastec, Inc.). The concentration of ethylene in a jar with “KIMWIPE” alone hermetically placed therein was also measured as a control.
Mouths of those jars were then hermetically closed with “[sequence]”.

On to `O=C(O)C=Cc1ccccc1` [Cinnamic acid, cinnamic acid], for which, under setting [1], the “Concentration of ethylene DAY 1” value came to 100 ppm and the “Concentration of ethylene DAY 6” value is given as 100 ppm. Moreover, the “Concentration of ethylene DAY 2” value (Table 1, DAY 2, 20 g apple pieces in closed 150-mL jar, 3 g agent) was found to be 100 ppm. Besides, under setting [2], the “Concentration of ethylene DAY 1” value is 38 ppm, the “Concentration of ethylene DAY 3” value came out at 50 ppm and the “Concentration of ethylene DAY 6” value is 50 ppm.
Regarding `O=C(O)CC(O)(CC(=O)O)C(=O)O` [Citric acid, citric acid], under setting [3], the “Concentration of ethylene DAY 1” value was determined as 275 ppm and the “Concentration of ethylene DAY 3” value is 125 ppm.
With `O=C([O-])CC(O)(CC(=O)[O-])C(=O)O.[Na+].[Na+]` [Disodium citrate, disodium citrate], under setting [3], the “Concentration of ethylene DAY 1” value is 250 ppm and the “Concentration of ethylene DAY 3” value amounted to 150 ppm.
With `O=C([O-])CC(O)(CC(=O)O)C(=O)O.[Na+]` [Monosodium citrate, monosodium citrate], under setting [3], the “Concentration of ethylene DAY 1” value amounted to 250 ppm and the “Concentration of ethylene DAY 3” value is recorded as 125 ppm.
For the compound `O=C([O-])O.[Na+]` [Sodium hydrogencarbonate, sodium hydrogencarbonate], the “Concentration of ethylene DAY 1” value by setting is: under setting [2], 50 ppm; under setting [3], 275 ppm; under setting [4], 275 ppm. For the same compound, the “Concentration of ethylene DAY 3” value by setting is: under setting [2], 75 ppm; under setting [3], 150 ppm; under setting [4], 150 ppm. The “Concentration of ethylene DAY 6” value is, setting by setting: under setting [2], 125 ppm; under setting [4], 150 ppm.
